Experimental data taken from patent US20240101570A1 (AMGEN INC., priority 2020, published 2024).
Like-named read-outs stand apart in the source and are kept apart here.

Columns and labels:
HCT116 MTAP null cells = experiment: HCT116 MTAP null cell proliferation / viability (CellTiter-Glo, 6 days); type: cell-based; details: HCT116-MTAP null, 144 h, read-out: HCT-116 MTAP null IC50
In short: (§1)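 Viability read by CellTiter-Glo after 6-day compound exposure of MTAP-null and wild-type HCT116 cells grown in RPMI 1640 with 10% FBS. Dosing used 1:3 steps from 1 or 10 μM (8-9 points) or 1:2 steps from 10 or 50 μM (22 points); IC50 taken where fitted curve crosses 50% of control.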

HCT116 WT cells = experiment: HCT116 WT cell proliferation / viability (CellTiter-Glo, 6 days); type: cell-based; details: Homo sapiens, HCT-116, 144 h, read-out: HCT-116 WT IC50
In short: as §1

[1] = HCT116 MTAP null cells, 6 days, CellTiter-Glo
[2] = HCT116 WT cells, 6 days, CellTiter-Glo

Row | SMILES | IC50 (HCT116 MTAP null cells; [1]) | IC50 (HCT116 WT cells; [2]) | IC50 (HCT116 MTAP null cells) | IC50 (HCT116 WT cells)
1 | Cn1ncc2c(N)nc3cc(F)c(C(=O)N(Cc4ccc(C(F)(F)F)cn4)CC(F)(F)F)cc3c21 [Example 800, 4-amino-7-fluoro-1-methyl-N-(2,2,2-trifluoroethyl)-N-((5-(trifluoromethyl)-2-pyridinyl)methyl)-1H-pyrazolo[4,3-c]quinoline-8-carboxamide] | 7 nM | 245 nM | – | –
2 | Cn1ncc2c(N)nc3cc(F)c(C(=O)N(Cc4cocn4)C4CCC4)cc3c21 [Example 801, 4-amino-N-cyclobutyl-7-fluoro-1-methyl-N-(1,3-oxazol-4-ylmethyl)-1H-pyrazolo[4,3-c]quinoline-8-carboxamide] | 153 nM | 13600 nM | – | –
3 | CN(Cc1ccc(C(F)(F)F)cn1)C(=O)c1cc2c(cc1F)nc(N)c1cnn(C)c12 [Example 802, 4-amino-7-fluoro-N,1-dimethyl-N-((5-(trifluoromethyl)-2-pyridinyl)methyl)-1H-pyrazolo[4,3-c]quinoline-8-carboxamide] | 21 nM | 1380 nM | – | –
4 | Cn1ncc2c(N)nc3cc(F)c(C(=O)N(Cc4ccc(C(F)(F)F)cn4)C4CC4)cc3c21 [Example 803, 4-amino-N-cyclopropyl-7-fluoro-1-methyl-N-((5-(trifluoromethyl)-2-pyridinyl)methyl)-1H-pyrazolo[4,3-c]quinoline-8-carboxamide] | 12 nM | 384 nM | – | –
5 | Cn1ncc2c(N)nc3cc(F)c(C(=O)N(Cc4ccc(C(F)(F)F)nn4)C4CC4)cc3c21 [Example 804, 4-amino-N-cyclopropyl-7-fluoro-1-methyl-N-((6-(trifluoromethyl)-3-pyridazinyl)methyl)-1H-pyrazolo[4,3-c]quinoline-8-carboxamide] | 26 nM | 1800 nM | – | –
6 | CC(C)N(Cc1ccc(C(F)(F)F)cn1)C(=O)c1cc2c(cc1F)nc(N)c1cnn(C)c12 [Example 805, 4-amino-7-fluoro-1-methyl-N-(2-propanyl)-N-((5-(trifluoromethyl)-2-pyridinyl)methyl)-1H-pyrazolo[4,3-c]quinoline-8-carboxamide] | 8 nM | 121 nM | – | –
7 | COc1nc(C(F)(F)F)ccc1CN(C)C(=O)c1cc2c(cc1F)nc(N)c1cnn(C)c12 [Example 806, 4-amino-7-fluoro-N-((2-methoxy-6-(trifluoromethyl)-3-pyridinyl)methyl)-N,1-dimethyl-1H-pyrazolo[4,3-c]quinoline-8-carboxamide] | 56 nM | 3160 nM | – | –
8 | Cn1ncc2c(N)nc3cc(F)c(C(=O)N(Cc4ccc(C(F)(F)F)cn4)C4CCC4)cc3c21 [Example 807, 4-amino-N-cyclobutyl-7-fluoro-1-methyl-N-((5-(trifluoromethyl)-2-pyridinyl)methyl)-1H-pyrazolo[4,3-c]quinoline-8-carboxamide] | 5 nM | 114 nM | – | –
9 | Cn1ncc2c3cc(C(=O)N(Cc4ccc(C(F)(F)F)cn4)C4CC4)c(Cl)cc3nc(N)c21 [Example 808, 4-amino-7-chloro-N-cyclopropyl-3-methyl-N-((5-(trifluoromethyl)-2-pyridinyl)methyl)-3H-pyrazolo[3,4-c]quinoline-8-carboxamide] | 52 nM | 3130 nM | – | –
10 | Cn1ncc2c(N)nc3cc(F)c(C(=O)N(Cc4ncc(C(F)(F)F)cc4F)C4CC4)cc3c21 [Example 809, 4-amino-N-cyclopropyl-7-fluoro-N-((3-fluoro-5-(trifluoromethyl)-2-pyridinyl)methyl)-1-methyl-1H-pyrazolo[4,3-c]quinoline-8-carboxamide] | 31 nM | 1790 nM | – | –
11 | CN(Cc1ccc(C(F)(F)F)cn1)C(=O)c1cc2c(cc1C(F)(F)F)nc(N)c1cnn(C)c12 [Example 810, 4-amino-N,1-dimethyl-7-(trifluoromethyl)-N-((5-(trifluoromethyl)-2-pyridinyl)methyl)-1H-pyrazolo[4,3-c]quinoline-8-carboxamide] | 226 nM | 13800 nM | – | –
12 | CN(Cc1ccc(C(F)(F)F)nn1)C(=O)c1cc2c(cc1C(F)(F)F)nc(N)c1cnn(C)c12 [Example 811, 4-amino-N,1-dimethyl-7-(trifluoromethyl)-N-((6-(trifluoromethyl)-3-pyridazinyl)methyl)-1H-pyrazolo[4,3-c]quinoline-8-carboxamide] | 645 nM | > 50000 nM | – | –
13 | Cn1ncc2c(N)nc3cc(C(F)(F)F)c(C(=O)N(Cc4ccc(C(F)(F)F)cn4)C4CC4)cc3c21 [Example 812, 4-amino-N-cyclopropyl-1-methyl-7-(trifluoromethyl)-N-((5-(trifluoromethyl)-2-pyridinyl)methyl)-1H-pyrazolo[4,3-c]quinoline-8-carboxamide] | 237 nM | 14100 nM | – | –
14 | Cn1ncc2c(N)nc3cc(C(F)(F)F)c(C(=O)N(Cc4ccc(C(F)(F)F)nn4)C4CC4)cc3c21 [Example 813, 4-amino-N-cyclopropyl-1-methyl-7-(trifluoromethyl)-N-((6-(trifluoromethyl)-3-pyridazinyl)methyl)-1H-pyrazolo[4,3-c]quinoline-8-carboxamide] | 676 nM | 29300 nM | – | –
15 | C[C@H](C1CC1)N(Cc1ccc(C(F)(F)F)nn1)C(=O)c1cc2c3c(c(N)nc2cc1F)COC3 [Example 814, 4-amino-N-((1R)-1-cyclopropylethyl)-7-fluoro-N-((6-(trifluoromethyl)-3-pyridazinyl)methyl)-1,3-dihydrofuro[3,4-c]quinoline-8-carboxamide] | 44 nM | 1170 nM | – | –
16 | C[C@@H](C1CC1)N(Cc1ccc(C(F)(F)F)nn1)C(=O)c1cc2c3c(c(N)nc2cc1F)COC3 [Example 815, 4-amino-N-((1S)-1-cyclopropylethyl)-7-fluoro-N-((6-(trifluoromethyl)-3-pyridazinyl)methyl)-1,3-dihydrofuro[3,4-c]quinoline-8-carboxamide] | 18 nM | 301 nM | – | –
17 | Nc1nc2cc(F)c(C(=O)N(Cc3ccc(OCC(F)(F)F)nn3)CC3CC3)cc2c2c1COC2 [Example 816, 4-amino-N-(cyclopropylmethyl)-7-fluoro-N-((6-(2,2,2-trifluoroethoxy)-3-pyridazinyl)methyl)-1,3-dihydrofuro[3,4-c]quinoline-8-carboxamide] | 78 nM | 2490 nM | – | –
18 | Cn1ncc2c3cc(C(=O)N(Cc4ccc(OCC(F)(F)F)nn4)CC4CC4)c(F)cc3nc(N)c21 [Example 817, 4-amino-N-(cyclopropylmethyl)-7-fluoro-3-methyl-N-((6-(2,2,2-trifluoroethoxy)-3-pyridazinyl)methyl)-3H-pyrazolo[3,4-c]quinoline-8-carboxamide] | 28 nM | 689 nM | – | –
19 | C[C@H]1OCc2c1c(N)nc1cc(F)c(C(=O)N(Cc3ccc(OCC(F)(F)F)nn3)CC3CC3)cc21 [Example 818, (3R)-4-amino-N-(cyclopropylmethyl)-7-fluoro-3-methyl-N-((6-(2,2,2-trifluoroethoxy)-3-pyridazinyl)methyl)-1,3-dihydrofuro[3,4-c]quinoline-8-carboxamide] | 7 nM | 161 nM | – | –
20 | Cn1cc(N(Cc2ccc(C(F)(F)F)cc2)C(=O)c2cc3c4c(c(N)nc3cn2)COC4)cn1 [Example 882, 4-amino-N-(1-methyl-1H-pyrazol-4-yl)-N-(4-(trifluoromethyl)benzyl)-1,3-dihydrofuro[3,4-c][1,7]naphthyridine-8-carboxamide 2,2,2-trifluoroacetate] | 62 nM | 1340 nM | – | –
21 | Nc1nc2ccc(C(=O)N(Cc3ccc(C(F)(F)F)cn3)c3cccc(F)c3)cc2c2c1COC2 [Example 883, 4-amino-N-(3-fluorophenyl)-N-((5-(trifluoromethyl)-2-pyridinyl)methyl)-1,3-dihydrofuro[3,4-c]quinoline-8-carboxamide] | 20 nM | 514 nM | – | –
22 | Cn1cc(N(Cc2ccc(C(F)(F)F)cn2)C(=O)c2ccc3nc(N)c4c(c3c2)COC4)cn1 [Example 884, 4-amino-N-(1-methyl-1H-pyrazol-4-yl)-N-((5-(trifluoromethyl)-2-pyridinyl)methyl)-1,3-dihydrofuro[3,4-c]quinoline-8-carboxamide] | 27 nM | 733 nM | – | –
23 | Cn1cc(N(Cc2ccc(C(F)(F)F)cn2)C(=O)c2cc3c4c(c(N)nc3cn2)COC4)cn1 [Example 885, 4-amino-N-(1-methyl-1H-pyrazol-4-yl)-N-((5-(trifluoromethyl)-2-pyridinyl)methyl)-1,3-dihydrofuro[3,4-c][1,7]naphthyridine-8-carboxamide] | 25 nM | 596 nM | – | –
24 | Cn1cc(N(Cc2ccc(C(F)(F)F)cn2)C(=O)c2cnc3nc(N)c4c(c3c2)COC4)cn1 [Example 886, 4-amino-N-(1-methyl-1H-pyrazol-4-yl)-N-((5-(trifluoromethyl)-2-pyridinyl)methyl)-1,3-dihydrofuro[3,4-c][1,8]naphthyridine-8-carboxamide] | 1690 nM | > 10000 nM | – | –
25 | C[C@H](c1ncccn1)N(Cc1ccc(C(F)(F)F)cn1)C(=O)c1ccc2nc(N)c3c(c2c1)CCOC3 [Example 887, 5-amino-N-[(1R)-1-pyrimidin-2-ylethyl]-N-[[5-(trifluoromethyl)-2-pyridyl]methyl]-2,4-dihydro-1H-pyrano[3,4-c]quinoline-9-carboxamide] | 25 nM | 496 nM | – | –
26 | C[C@H](c1ncccn1)N(Cc1ccc(C(F)(F)F)cn1)C(=O)c1ccc2nc(N)c3c(c2c1)OCC3 [Example 888, 4-amino-N-[(1R)-1-pyrimidin-2-ylethyl]-N-[[5-(trifluoromethyl)-2-pyridyl]methyl]-2,3-dihydrofuro[3,2-c]quinoline-8-carboxamide] | 21 nM | 231 nM | – | –
27 | CC(C)CN(Cc1ccc(C(F)(F)F)cn1)C(=O)c1ccc2nc(N)c3c(c2c1)COC3(C)C [Example 889] | – | – | 202 nM | 4740 nM
